Patent US5256528A, “Magenta image-dye couplers of improved hue” (Eastman Kodak Company, priority 1992, dated 1993)

Legend:
[1] = Absorption spectra of dye-containing processed films (λmax), C-41 process; assay type: physicochemical; details: coupler:S1 1:0.5
Protocol: (§1) Dispersions of the comparative couplers B1-B3 and B8 and of the couplers of this invention M1-M3 were prepared by dissolving the coupler in the coupler solvent S1 plus the auxiliary solvent 2-(2-butoxyethoxy)ethyl acetate and then dispersing this oil phase in an aqueous solution of gelatin and surfactant using an ultrasonic probe. The dispersions were chilled and washed for 6 hr at 4° C. to remove the auxiliary solvent. The dispersions contained approximately 8.8% coupler, 4.4% S1 and 6% gelatin by weight.
(§2) The dispersions were coated at 1.04 mmole/sq m together with a silver bromoiodide emulsion on a transparent acetate support in the format shown below. Hardened film strips were exposed through a 0-4 neutral density stepwedge and daylight V and WRATTEN 9 filters and subjected to a standard C-41 process at 37.8° C. The process consists of 2.5 min in color developer, 4 min in a ferric EDTA/PDTA bleach solution, 2 min wash, 4 min fix and 2 min final wash. Photographic gamma values were obtained from the slopes of plots of status M green density vs. exposure for processed samples. Absorption spectra of the dye-containing processed films were measured at a density near 1.0 on a spectrophotometer and the wavelengths of maximum absorption (λ max values) were recorded.
(§3) BVSM* Hardener 0.06 g/sq m
(§4) Coupler Solvent S1 1/2 coupler laydown
(§5) Dispersions of couplers B3, M1 and M5 with S1 (1:0.5) were prepared and coated as in Example 2. Film strips of these coatings were exposed, processed and analyzed as in Example 2. λmax values and gamma values associated with these film compositions are listed in Table III. This series further illustrates the use of electron-withdrawing substituents to obtain magenta dyes of the proper hue.
(§6) Dispersions of the comparative couplers B4, B5 and B8 and the couplers of this invention M6-M11 were prepared and coated as in Example 2. The coupler solvent S1 was again used at a 1:0.5 coupler:S1 weight ratio. Film strips of the hardened coatings were exposed, processed and analyzed as in Example 2. Couplers B4 and M6-M8 have a strongly electron-withdrawing alkoxycarbonyl substituent in the R2 position and couplers B5 and M9-M11 have a strongly electron-withdrawing alkylsulfonyl group at R2. […] The couplers of this invention, M6-M11, which have strong electron-withdrawing groups in each ring, yield dyes having the desired bathochromic hues, as shown by the λmax values. The gamma values obtained with the couplers of this invention are suitably high to be useful in photographic materials, as indicated by comparison to the gamma obtained from the commercial coupler B8.
(§7) Dispersions of the comparison couplers B6 and B7, and of the couplers of this invention M12-M17, were prepared using the coupler solvent Sl as in Example 2. These were coated as in Example 2, and hardened film strips were exposed, processed and analyzed as in Example 2. The results obtained are summarized in Table V. In this example all of the couplers have sulfamoyl or alkylsulfonyl substituents in the R1 position and the R2 substituent on the 3-anilino ring is varied. Comparative couplers B6 and B7 have chloro substituents at R2, whereas M12-M17 of this invention have strong electron withdrawing R2 groups. […] The gamma values of the couplers of this invention are similar to those of the comparative couplers.

[2] = Photographic gamma (slope of status M green density vs. exposure), C-41 process; details: coupler:S1 1:0.5
Protocol: as §1, §2, §3, §4, §5, §6, §7

[3] = Continued coupling in bleach, delta Dmin process B - process A; details: Table VI
Protocol: (§8) Dispersions of the coupler B3 were prepared with coupler solvents S1 and C2, both at a 1:1 B3:coupler solvent weight ratio. Dispersions of coupler M1 were prepared with C2 at 1:1 and with C2 plus aniline A1 at a 1:0.8:0.2 M1:C2:A1 weight ratio. These dispersions were prepared by dissolving the coupler in a mixture of coupler solvent, aniline A1 (optional) and cyclohexanone. The coupler:cyclohexanone weight ratio was 1:3. This mixture was then added to an aqueous solution of gelatin and ALKANOL XC surfactant. The two-phase mixture was then passed through a colloid mill to disperse the coupler-containing oil phase in the aqueous phase in the form of small droplets. The dispersion was then chilled, noodled and washed to remove the auxiliary cyclohexanone solvent. The resulting dispersions contained approximately 2% by weight of coupler and 6% by weight of gelatin.
(§9) The dispersions were then coated on a transparent support together with a silver bromoiodide emulsion in the format shown below. Coatings were then exposed through a stepwedge and subjected to variants of the KODAK FLEXICOLOR (C-41) process described below. One set of film samples was processed with an acetic acid stop bath between the development and bleach steps (process A). A second set of films was processed without a stop bath and with the bleach pH adjusted to 6.0 instead of the normal 5.25 (process B). This is intended to simulate behavior in a "seasoned" bleach whose pH increases due to carry-over of base from the developer solution. The difference between Dmin values (densities obtained in unexposed portions of the films) between process A and process B are due to continued coupling between coupler and developer carried over into the bleach. Both the lack of a stop bath and the high bleach pH in process B aggravate continued coupling. It is desirable to minimize Dmin density and Dmin variability due to continued coupling. Since conditions similar to process B are encountered in simplified trade processing, it is desirable to minimize continued coupling, as measured by the delta Dmin of process B - process A. These delta Dmin values are listed in Table VI along with λmax values and gamma values (obtained from plots of status M green density versus exposure).
(§10) 2.6 g/sq m Gelatin + 1.75 weight % BVSME* Hardener
(§11) Coupler Solvent + or - A1 @ equal weight to coupler
(§12) 1.08 g/sq m Silver Emulsion
(§13) //////Cellulose Acetate Butyrate Support//////
or Standard C-41 Bleach II
2B Bleach II Adjusted to pH = 6.0
(§14) Also included in this comparison was a 1:1 dispersion of M1 plus C2 to which was added the DIR coupler D1 (shown above) at a M1:D1 weight ratio of 1:0.045.

[4] = Photographic gamma with coupler solvents and addenda (KODAK FLEXICOLOR C-41 variants); details: Table VI, no DIR coupler
Protocol: as §8
as §9, with “Both the lack of a stop bath and the high bleach pH in process B aggravate continued coupling. It is desirable to minimize Dmin density and Dmin variability due to continued coupling.” left out, “exposure). […]” for “exposure).”

[5] = λmax with coupler solvents and addenda (KODAK FLEXICOLOR C-41 variants); assay type: physicochemical; details: Table VI
Protocol: as §8, §9, §10, §11, §12, §13, §14

[6] = Formaldehyde exposure test (loss of dye density obtainable on processing); details: Table II, Example 3; 48 hr formaldehyde exposure, 60% RH; relative to water-glycerol only
From the text: Prior examples of 3-anilino-1-phenyl-5-pyrazolone couplers that yield bathochromic dyes have been limited to four-equivalent couplers or to couplers with coupling-off groups other than arylthio or alkylthio groups. The four-equivalent couplers are not suitable for the practice of this invention because of their high propensity to react with formaldehyde or other hardeners. This can be illustrated by exposing coupler-containing films to formaldehyde and noting the changes in the dye density obtainable upon photographic processing. To obtain the data in Table II one set of film strips was suspended in a light-tight tank over a beaker containing 10 g of formaldehyde, and a solution of 14 g of water and 36 g of glycerol (60% RH) for 48 hr. A second set of strips was suspended for 48 hr over a water-glycerol solution without the beaker of formaldehyde. The strips were then exposed through a stepwedge, process (C-41) and the densities were measured. Values of the percent reduction in (Dmax-Dmin) for the samples exposed to formaldehyde relative to the samples exposed to water-glycerol only were determined.
Coatings of B8,B9 and M1 prepared as described in Example 2 were subjected to the formaldehyde test.

[7] = Unwanted blue light absorption of magenta dye in film (absorption spectra, FIGURE); assay type: physicochemical; details: relative to dye derived from comparative coupler B5
Protocol: as §2
Dispersions of the comparative couplers B4, B5 and B8 and the couplers of this invention M6-M11 were prepared and coated as in Example 2. The coupler solvent S1 was again used at a 1:0.5 coupler:S1 weight ratio. Film strips of the hardened coatings were exposed, processed and analyzed as in Example 2. Couplers B4 and M6-M8 have a strongly electron-withdrawing alkoxycarbonyl substituent in the R2 position and couplers B5 and M9-M11 have a strongly electron-withdrawing alkylsulfonyl group at R2. […]

[8] = C2(1.0), no aniline, no DIR coupler
[9] = S1(1.0), no aniline, no DIR coupler
[10] = C2(0.8), aniline A1(0.2), no DIR coupler
[11] = C2(1.0), no aniline, DIR coupler D1(0.045)

SMILES	λmax(nm) (+-0.5) ([1]; Table I, Example 2)	λmax(nm) (+-0.5) ([1]; Table III, Example 4)	Gamma ([2]; Table I, Example 2)	Gamma ([2]; Table III, Example 4)	Delta Dmin Process B-A [3, 8]	Delta Dmin Process B-A [3, 9]	Gamma ([4]; C2(1.0), no aniline)	Gamma ([4]; S1(1.0), no aniline)	λmax(nm) [5, 8] [nm]	λmax(nm) [5, 9] [nm]	% Density Loss after Formaldehyde Exposure [6] [%]	Delta Dmin Process B-A [3, 10]	Delta Dmin Process B-A [3, 11]	Gamma ([4]; C2(0.8), aniline A1(0.2))	λmax(nm) [5, 10] [nm]	λmax(nm) [5, 11] [nm]	λmax(nm) (+-0.5) ([1]; Table IV, Example 5)	Gamma ([2]; Table IV, Example 5)	unwanted blue light absorption at 480 nm [7]
CCCCCCCCCCCCNS(=O)(=O)c1ccc(NC2=NN(c3c(Cl)cc(Cl)cc3Cl)C(=O)C2Sc2cc(C(C)(C)CC(C)(C)C)ccc2OCCCC)c(Cl)c1 (centres unmarked) [Coupler B3, reference compound]	546.0	546.5	4.7	4.5	0.071	0.191	1.78	2.10	544	548									
CCCCCCCCCCCCNS(=O)(=O)c1ccc(NC2=NN(c3c(Cl)cc(S(=O)(=O)N4CCOCC4)cc3Cl)C(=O)C2Sc2cc(C(C)(C)CC(C)(C)C)ccc2OCCCC)c(Cl)c1 (centres unmarked) [Coupler M1]	550.5			4.4	0.073				549		3	0.040	0.088	1.83	549	549			
CCCCCCCCCCCCS(=O)(=O)c1ccc(NC2=NN(c3c(Cl)cc(C#N)cc3Cl)C(=O)C2Sc2cc(C(C)(C)CC(C)(C)C)ccc2OCCCC)c(Cl)c1 (centres unmarked) [Coupler M11]																	551.0	3.3	less unwanted blue light absorption at 480 nm
